From ChEMBL document CHEMBL3885881, “DrugMatrix”

Species on record: Rattus norvegicus
Test: DrugMatrix - Regimen: Daily Repeat
Assay type: toxicity, organism-based, Sprague-Dawley
Set-up: regimen Daily Repeat, gender Male, age 6-8 weeks
Details: in vivo, po, route oral GAVAGE, vehicle .5 % CMC; for ABSOLUTE BASOPHIL / ABSOLUTE EOSINOPHIL / ABSOLUTE LYMPHOCYTE / ABSOLUTE MONOCYTE / ABSOLUTE SEGMENTED NEUTROPHIL / BASOPHIL / EOSINOPHIL / ERYTHROCYTE COUNT / HEMATOCRIT / HEMOGLOBIN / LEUKOCYTE COUNT / LYMPHOCYTE / MEAN CORPUSCULAR HEMOGLOBIN / MEAN CORPUSCULAR HEMOGLOBIN CONCENTRATION / MEAN CORPUSCULAR VOLUME / MONOCYTE / NEUTROPHIL / NUCLEATED RED BLOOD CELLS / PLATELET COUNT: tissue Blood; for ALANINE AMINOTRANSFERASE / ALBUMIN / ALKALINE PHOSPHATASE / ASPARTATE AMINOTRANSFERASE / BLOOD UREA NITROGEN / CARBON DIOXIDE / CHLORIDE / CHOLESTEROL / CREATINE PHOSPHOKINASE / CREATININE / GLUCOSE / LACTATE DEHYDROGENASE / LIPASE / PHOSPHORUS / POTASSIUM / SODIUM / TOTAL BILIRUBIN / TOTAL PROTEIN / URIC ACID: tissue Plasma
[1] = 0 mg/kg, 72 h, dose level Control, time 3 day
[2] = 0 mg/kg, 120 h, dose level Control, time 5 day
[3] = 30 mg/kg, 72 h, dose level Low, time 3 day
[4] = 30 mg/kg, 120 h, dose level Low, time 5 day

SMILES: COc1cc(OC)c(C(=O)CCCN2CCCC2)c(OC)c1 [BUFLOMEDIL]
- ABSOLUTE BASOPHIL [1]: 0 CELLS/uL
- ABSOLUTE EOSINOPHIL [1]: 0 CELLS/uL
- ABSOLUTE LYMPHOCYTE [1]: 10913.67 CELLS/uL
- ABSOLUTE MONOCYTE [1]: 85.33 CELLS/uL
- ABSOLUTE SEGMENTED NEUTROPHIL [1]: 1401 CELLS/uL
- BASOPHIL [1]: 0%
- EOSINOPHIL [1]: 0%
- ERYTHROCYTE COUNT [1]: 5.57 x10E6/uL
- HEMATOCRIT [1]: 35.58%
- HEMOGLOBIN [1]: 13.8 G/DL
- LEUKOCYTE COUNT [1]: 12.4 x10E3/uL
- LYMPHOCYTE [1]: 88%
- MEAN CORPUSCULAR HEMOGLOBIN [1]: 24.78 pg
- MEAN CORPUSCULAR HEMOGLOBIN CONCENTRATION [1]: 38.82 G/DL
- MEAN CORPUSCULAR VOLUME [1]: 63.88 fL
- MONOCYTE [1]: 0.67%
- NEUTROPHIL [1]: 11.33%
- NUCLEATED RED BLOOD CELLS [1]: 0 /100WBC
- PLATELET COUNT [1]: 1162.33 x10E3/uL
- ALANINE AMINOTRANSFERASE [1]: 53 u/L
- ALBUMIN [1]: 4.17 G/DL
- ALKALINE PHOSPHATASE [1]: 374.5 u/L
- ASPARTATE AMINOTRANSFERASE [1]: 89.5 u/L
- BLOOD UREA NITROGEN [1]: 16.33 mg/dL
- CARBON DIOXIDE [1]: 29.17 mmol/L
- CHLORIDE [1]: 97.67 MEQ/L
- CHOLESTEROL [1]: 77 mg/dL
- CREATINE PHOSPHOKINASE [1]: 464.83 u/L
- CREATININE [1]: 0.14 mg/dL
- GLUCOSE [1]: 164 mg/dL
- LACTATE DEHYDROGENASE [1]: 155.5 u/L
- LIPASE [1]: 9.17 u/L
- PHOSPHORUS [1]: 12.4 mg/dL
- POTASSIUM [1]: 6.91 MEQ/L
- SODIUM [1]: 141.47 MEQ/L
- TOTAL BILIRUBIN [1]: 0.2 mg/dL
- TOTAL PROTEIN [1]: 5.95 G/DL
- URIC ACID [1]: 1.72 mg/dL
- ABSOLUTE BASOPHIL [2]: 0 CELLS/uL
- ABSOLUTE EOSINOPHIL [2]: 20.5 CELLS/uL
- ABSOLUTE LYMPHOCYTE [2]: 13871.67 CELLS/uL
- ABSOLUTE MONOCYTE [2]: 60.5 CELLS/uL
- ABSOLUTE SEGMENTED NEUTROPHIL [2]: 980.67 CELLS/uL
- BASOPHIL [2]: 0%
- EOSINOPHIL [2]: 0.17%
- ERYTHROCYTE COUNT [2]: 5.65 x10E6/uL
- HEMATOCRIT [2]: 35.63%
- HEMOGLOBIN [2]: 14.08 G/DL
- LEUKOCYTE COUNT [2]: 14.93 x10E3/uL
- LYMPHOCYTE [2]: 92.83%
- MEAN CORPUSCULAR HEMOGLOBIN [2]: 24.97 pg
- MEAN CORPUSCULAR HEMOGLOBIN CONCENTRATION [2]: 39.55 G/DL
- MEAN CORPUSCULAR VOLUME [2]: 63.13 fL
- MONOCYTE [2]: 0.33%
- NEUTROPHIL [2]: 6.67%
- NUCLEATED RED BLOOD CELLS [2]: 0 /100WBC
- PLATELET COUNT [2]: 1248.17 x10E3/uL
- ALANINE AMINOTRANSFERASE [2]: 45.17 u/L
- ALBUMIN [2]: 4.27 G/DL
- ALKALINE PHOSPHATASE [2]: 405.67 u/L
- ASPARTATE AMINOTRANSFERASE [2]: 74.17 u/L
- BLOOD UREA NITROGEN [2]: 15.5 mg/dL
- CARBON DIOXIDE [2]: 30.17 mmol/L
- CHLORIDE [2]: 100.67 MEQ/L
- CHOLESTEROL [2]: 57 mg/dL
- CREATINE PHOSPHOKINASE [2]: 239.5 u/L
- CREATININE [2]: 0.17 mg/dL
- GLUCOSE [2]: 165.67 mg/dL
- LACTATE DEHYDROGENASE [2]: 90.5 u/L
- LIPASE [2]: 8.83 u/L
- PHOSPHORUS [2]: 12.32 mg/dL
- POTASSIUM [2]: 7.03 MEQ/L
- SODIUM [2]: 142.65 MEQ/L
- TOTAL BILIRUBIN [2]: 0.18 mg/dL
- TOTAL PROTEIN [2]: 6.03 G/DL
- URIC ACID [2]: 1.98 mg/dL
- ABSOLUTE BASOPHIL [3]: 0 CELLS/uL
- ABSOLUTE EOSINOPHIL [3]: 0 CELLS/uL
- ABSOLUTE LYMPHOCYTE [3]: 12859.33 CELLS/uL
- ABSOLUTE MONOCYTE [3]: 198 CELLS/uL
- ABSOLUTE SEGMENTED NEUTROPHIL [3]: 1176 CELLS/uL
- BASOPHIL [3]: 0%
- EOSINOPHIL [3]: 0%
- ERYTHROCYTE COUNT [3]: 5.25 x10E6/uL
- HEMATOCRIT [3]: 33.97%
- HEMOGLOBIN [3]: 14.13 G/DL
- LEUKOCYTE COUNT [3]: 14.23 x10E3/uL
- LYMPHOCYTE [3]: 90%
- MEAN CORPUSCULAR HEMOGLOBIN [3]: 25.77 pg
- MEAN CORPUSCULAR HEMOGLOBIN CONCENTRATION [3]: 39.67 G/DL
- MEAN CORPUSCULAR VOLUME [3]: 64.9 fL
- MONOCYTE [3]: 1.33%
- NEUTROPHIL [3]: 8.67%
- NUCLEATED RED BLOOD CELLS [3]: 0 /100WBC
- PLATELET COUNT [3]: 1306 x10E3/uL
- ALANINE AMINOTRANSFERASE [3]: 53 u/L
- ALBUMIN [3]: 4.17 G/DL
- ALKALINE PHOSPHATASE [3]: 441 u/L
- ASPARTATE AMINOTRANSFERASE [3]: 83.33 u/L
- BLOOD UREA NITROGEN [3]: 16.67 mg/dL
- CARBON DIOXIDE [3]: 27.67 mmol/L
- CHLORIDE [3]: 98 MEQ/L
- CHOLESTEROL [3]: 75.33 mg/dL
- CREATINE PHOSPHOKINASE [3]: 360 u/L
- CREATININE [3]: 0.1 mg/dL
- GLUCOSE [3]: 146 mg/dL
- LACTATE DEHYDROGENASE [3]: 180.33 u/L
- LIPASE [3]: 9.33 u/L
- PHOSPHORUS [3]: 13.93 mg/dL
- POTASSIUM [3]: 6.77 MEQ/L
- SODIUM [3]: 143.3 MEQ/L
- TOTAL BILIRUBIN [3]: 0.23 mg/dL
- TOTAL PROTEIN [3]: 5.9 G/DL
- URIC ACID [3]: 1.47 mg/dL
- ABSOLUTE BASOPHIL [4]: 0 CELLS/uL
- ABSOLUTE EOSINOPHIL [4]: 0 CELLS/uL
- ABSOLUTE LYMPHOCYTE [4]: 10085.67 CELLS/uL
- ABSOLUTE MONOCYTE [4]: 133.67 CELLS/uL
- ABSOLUTE SEGMENTED NEUTROPHIL [4]: 980.67 CELLS/uL
- BASOPHIL [4]: 0%
- EOSINOPHIL [4]: 0%
- ERYTHROCYTE COUNT [4]: 5.03 x10E6/uL
- HEMATOCRIT [4]: 33.2%
- HEMOGLOBIN [4]: 13.3 G/DL
- LEUKOCYTE COUNT [4]: 11.2 x10E3/uL
- LYMPHOCYTE [4]: 91.33%
- MEAN CORPUSCULAR HEMOGLOBIN [4]: 26.47 pg
- MEAN CORPUSCULAR HEMOGLOBIN CONCENTRATION [4]: 40.07 G/DL
- MEAN CORPUSCULAR VOLUME [4]: 66.07 fL
- MONOCYTE [4]: 1%
- NEUTROPHIL [4]: 7.67%
- NUCLEATED RED BLOOD CELLS [4]: 0 /100WBC
- PLATELET COUNT [4]: 833 x10E3/uL
- ALANINE AMINOTRANSFERASE [4]: 55.67 u/L
- ALBUMIN [4]: 4.23 G/DL
- ALKALINE PHOSPHATASE [4]: 308.33 u/L
- ASPARTATE AMINOTRANSFERASE [4]: 81 u/L
- BLOOD UREA NITROGEN [4]: 17.33 mg/dL
- CARBON DIOXIDE [4]: 26.33 mmol/L
- CHLORIDE [4]: 102.33 MEQ/L
- CHOLESTEROL [4]: 64 mg/dL
- CREATINE PHOSPHOKINASE [4]: 354.67 u/L
- CREATININE [4]: 0.13 mg/dL
- GLUCOSE [4]: 152.33 mg/dL
- LACTATE DEHYDROGENASE [4]: 110.67 u/L
- LIPASE [4]: 12 u/L
- PHOSPHORUS [4]: 12.5 mg/dL
- POTASSIUM [4]: 6.61 MEQ/L
- SODIUM [4]: 143.1 MEQ/L
- TOTAL BILIRUBIN [4]: 0.2 mg/dL
- TOTAL PROTEIN [4]: 5.97 G/DL
- URIC ACID [4]: 2.27 mg/dL
